Laboratory results taken from BigSolDB 2.1.

CC1(C)COP(=O)(Oc2cccc(OP3(=O)OCC(C)(C)CO3)c2)OC1
solubility (mole fraction) (in 1,2-dichloroethane, 293.15 K): 0.017 | solubility (mole fraction) (in 1,2-dichloroethane, 298.15 K): 0.0199 | solubility (mole fraction) (in 1,2-dichloroethane, 303.15 K): 0.0233 | solubility (mole fraction) (in 1,2-dichloroethane, 308.15 K): 0.0273 | solubility (mole fraction) (in 1,2-dichloroethane, 313.15 K): 0.0317 | solubility (mole fraction) (in 1,2-dichloroethane, 318.15 K): 0.0366 | solubility (mole fraction) (in 1,2-dichloroethane, 323.15 K): 0.0423 | solubility (mole fraction) (in 1,2-dichloroethane, 328.15 K): 0.0491 | solubility (mole fraction) (in 1,2-dichloroethane, 333.15 K): 0.0564 | solubility (mole fraction) (in acetone, 293.15 K): 0.00607 | solubility (mole fraction) (in acetone, 298.15 K): 0.00796 | solubility (mole fraction) (in acetone, 303.15 K): 0.0103 | solubility (mole fraction) (in acetone, 308.15 K): 0.0131 | solubility (mole fraction) (in acetone, 313.15 K): 0.0163 | solubility (mole fraction) (in acetone, 318.15 K): 0.0201 | solubility (mole fraction) (in acetone, 323.15 K): 0.0251 | solubility (mole fraction) (in acetonitrile, 293.15 K): 0.0102 | solubility (mole fraction) (in acetonitrile, 298.15 K): 0.0127 | solubility (mole fraction) (in acetonitrile, 303.15 K): 0.0153 | solubility (mole fraction) (in acetonitrile, 308.15 K): 0.0191 | solubility (mole fraction) (in acetonitrile, 313.15 K): 0.0231 | solubility (mole fraction) (in acetonitrile, 318.15 K): 0.0279 | solubility (mole fraction) (in acetonitrile, 323.15 K): 0.0342 | solubility (mole fraction) (in acetonitrile, 328.15 K): 0.0405 | solubility (mole fraction) (in acetonitrile, 333.15 K): 0.0491 | solubility (mole fraction) (in chloroform, 293.15 K): 0.0646 | solubility (mole fraction) (in chloroform, 298.15 K): 0.07 | solubility (mole fraction) (in chloroform, 303.15 K): 0.0751 | solubility (mole fraction) (in chloroform, 308.15 K): 0.0807 | solubility (mole fraction) (in chloroform, 313.15 K): 0.086 | solubility (mole fraction) (in chloroform, 318.15 K): 0.0923 | solubility (mole fraction) (in chloroform, 323.15 K): 0.0984 | solubility (mole fraction) (in ethanol, 293.15 K): 0.00179 | solubility (mole fraction) (in ethanol, 298.15 K): 0.0024 | solubility (mole fraction) (in ethanol, 303.15 K): 0.00313 | solubility (mole fraction) (in ethanol, 308.15 K): 0.00413 | solubility (mole fraction) (in ethanol, 313.15 K): 0.00541 | solubility (mole fraction) (in ethanol, 318.15 K): 0.00702 | solubility (mole fraction) (in ethanol, 323.15 K): 0.00902 | solubility (mole fraction) (in ethanol, 328.15 K): 0.0118 | solubility (mole fraction) (in ethanol, 333.15 K): 0.0151 | solubility (mole fraction) (in ethyl acetate, 293.15 K): 0.0008 | solubility (mole fraction) (in ethyl acetate, 298.15 K): 0.00099 | solubility (mole fraction) (in ethyl acetate, 303.15 K): 0.00123 | solubility (mole fraction) (in ethyl acetate, 308.15 K): 0.00154 | solubility (mole fraction) (in ethyl acetate, 313.15 K): 0.00189 | solubility (mole fraction) (in ethyl acetate, 318.15 K): 0.00233 | solubility (mole fraction) (in ethyl acetate, 323.15 K): 0.00284 | solubility (mole fraction) (in ethyl acetate, 328.15 K): 0.00348 | solubility (mole fraction) (in ethyl acetate, 333.15 K): 0.0042 | solubility (mole fraction) (in ethyl formate, 293.15 K): 0.00422 | solubility (mole fraction) (in ethyl formate, 298.15 K): 0.00508 | solubility (mole fraction) (in ethyl formate, 303.15 K): 0.00607 | solubility (mole fraction) (in ethyl formate, 308.15 K): 0.00713 | solubility (mole fraction) (in ethyl formate, 313.15 K): 0.00842 | solubility (mole fraction) (in ethyl formate, 318.15 K): 0.00988 | solubility (mole fraction) (in ethyl formate, 323.15 K): 0.0116 | solubility (mole fraction) (in methanol, 293.15 K): 0.0022 | solubility (mole fraction) (in methanol, 298.15 K): 0.00357 | solubility (mole fraction) (in methanol, 303.15 K): 0.00543 | solubility (mole fraction) (in methanol, 308.15 K): 0.0085 | solubility (mole fraction) (in methanol, 313.15 K): 0.0129 | solubility (mole fraction) (in methanol, 318.15 K): 0.0187 | solubility (mole fraction) (in methanol, 323.15 K): 0.0284 | solubility (mole fraction) (in methyl acetate, 293.15 K): 0.00229 | solubility (mole fraction) (in methyl acetate, 298.15 K): 0.00281 | solubility (mole fraction) (in methyl acetate, 303.15 K): 0.00347 | solubility (mole fraction) (in methyl acetate, 308.15 K): 0.00422 | solubility (mole fraction) (in methyl acetate, 313.15 K): 0.00511 | solubility (mole fraction) (in methyl acetate, 318.15 K): 0.0062 | solubility (mole fraction) (in methyl acetate, 323.15 K): 0.00745 | solubility (mole fraction) (in n-hexane, 293.15 K): 1e-05 | solubility (mole fraction) (in n-hexane, 298.15 K): 2e-05 | solubility (mole fraction) (in n-hexane, 303.15 K): 2e-05 | solubility (mole fraction) (in n-hexane, 308.15 K): 4e-05 | solubility (mole fraction) (in n-hexane, 313.15 K): 6e-05 | solubility (mole fraction) (in n-hexane, 318.15 K): 8e-05 | solubility (mole fraction) (in n-hexane, 323.15 K): 0.00012 | solubility (mole fraction) (in n-propanol, 293.15 K): 0.00096 | solubility (mole fraction) (in n-propanol, 298.15 K): 0.00135 | solubility (mole fraction) (in n-propanol, 303.15 K): 0.00187 | solubility (mole fraction) (in n-propanol, 308.15 K): 0.0026 | solubility (mole fraction) (in n-propanol, 313.15 K): 0.00356 | solubility (mole fraction) (in n-propanol, 318.15 K): 0.00495 | solubility (mole fraction) (in n-propanol, 323.15 K): 0.00658 | solubility (mole fraction) (in n-propanol, 328.15 K): 0.00899 | solubility (mole fraction) (in n-propanol, 333.15 K): 0.0118 | solubility (mole fraction) (in toluene, 293.15 K): 0.00016 | solubility (mole fraction) (in toluene, 298.15 K): 0.0002 | solubility (mole fraction) (in toluene, 303.15 K): 0.00026 | solubility (mole fraction) (in toluene, 308.15 K): 0.00032 | solubility (mole fraction) (in toluene, 313.15 K): 0.0004 | solubility (mole fraction) (in toluene, 318.15 K): 0.00049 | solubility (mole fraction) (in toluene, 323.15 K): 0.00061 | solubility (mole fraction) (in toluene, 328.15 K): 0.00076 | solubility (mole fraction) (in toluene, 333.15 K): 0.0009
